Where “and” joins values, the source holds several entries; their conditions need not be identical. Equal values may be shown once.
System: 377384-186-R-J1-PDC complex spheroid viability
Test: Anticancer human tumor 377384-186-R-J1-PDC patient-derived pancreatic carcinoma cell line growth inhibition [CLK]
Settings: for viability, T/C: stronger effect = lower value
Method in brief: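 Multi-cell-type spheroids combined patient-derived tumor cells with HUVEC endothelial cells and human mesenchymal stem cells. Paired agents were dosed in half-log steps down from about clinical Cmax, or from 10 microM where Cmax was unknown.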
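Also: spheroids exposed to agents for 7 days before reading.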
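For viability, T/C in this document: luminescence signal used as a stand-in for viable cells.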

## CC(Nc1ccc2c(c1)OCCn1cc(N3C(=O)OCC3C(F)F)nc1-2)C(N)=O (stereo not given)
Compound 0.0316 µM
  viability, T/C: 86.6% and 85.8%
Compound 0.1 µM
  viability, T/C: 90.3% and 69.1%
Compound 0.316 µM
  viability, T/C: 59.9% and 53%
Compound 1 µM
  viability, T/C: 56.3% and 54%
Compound 3.16 µM
  viability, T/C: 49.6% and 35.9%
Compound 10 µM
  viability, T/C: 43.6% and 36.5%

## CC(=O)O[C@H]1C(=O)[C@@]2(C)[C@H]([C@H](OC(=O)c3ccccc3)[C@]3(O)C[C@H](OC(=O)[C@H](O)[C@@H](NC(=O)c4ccccc4)c4ccccc4)C(C)=C1C3(C)C)[C@]1(OC(C)=O)CO[C@@H]1C[C@@H]2O + CNC(=O)c1ccc(Nc2nc(OC3CCCC3)c3c(-c4ccc5nc(C)oc5c4)c[nH]c3n2)c(OC)c1
Curve of first compound, second compound 0.0316 µM
  IC50: < 31.6 nM
Curve of first compound, second compound 0.1 µM
  IC50: < 31.6 nM
Curve of first compound, second compound 0.316 µM
  IC50: < 31.6 nM
Curve of first compound, second compound 1 µM
  IC50: < 31.6 nM
Curve of first compound, second compound 3.16 µM
  IC50: < 31.6 nM
Curve of first compound, second compound 10 µM
  IC50: < 31.6 nM
Second compound 0.0316 µM, first compound 0.0316 µM
  viability, T/C: 11.1%
Second compound 0.0316 µM, first compound 0.1 µM
  viability, T/C: 9.78%
Second compound 0.0316 µM, first compound 0.316 µM
  viability, T/C: 11.1%
Second compound 0.0316 µM, first compound 1 µM
  viability, T/C: 10.2%
Second compound 0.0316 µM, first compound 3.16 µM
  viability, T/C: 12.7%
Second compound 0.0316 µM, first compound 10 µM
  viability, T/C: 20.1%
Second compound 0.1 µM, first compound 0.0316 µM
  viability, T/C: 14.4%
Second compound 0.1 µM, first compound 0.1 µM
  viability, T/C: 16.9%
Second compound 0.1 µM, first compound 0.316 µM
  viability, T/C: 20.5%
Second compound 0.1 µM, first compound 1 µM
  viability, T/C: 21.8%
Second compound 0.1 µM, first compound 3.16 µM
  viability, T/C: 28.9%
Second compound 0.1 µM, first compound 10 µM
  viability, T/C: 35.2%
Second compound 0.316 µM, first compound 0.0316 µM
  viability, T/C: 20%
Second compound 0.316 µM, first compound 0.1 µM
  viability, T/C: 21.2%
Second compound 0.316 µM, first compound 0.316 µM
  viability, T/C: 29%
Second compound 0.316 µM, first compound 1 µM
  viability, T/C: 36.6%
Second compound 0.316 µM, first compound 3.16 µM
  viability, T/C: 42.3%
Second compound 0.316 µM, first compound 10 µM
  viability, T/C: 47.3%
Second compound 1 µM, first compound 0.0316 µM
  viability, T/C: 21.7%
Second compound 1 µM, first compound 0.1 µM
  viability, T/C: 22.3%
Second compound 1 µM, first compound 0.316 µM
  viability, T/C: 29.6%
Second compound 1 µM, first compound 1 µM
  viability, T/C: 37.9%
Second compound 1 µM, first compound 3.16 µM
  viability, T/C: 40.5%
Second compound 1 µM, first compound 10 µM
  viability, T/C: 49.1%
Second compound 3.16 µM, first compound 0.0316 µM
  viability, T/C: 18%
Second compound 3.16 µM, first compound 0.1 µM
  viability, T/C: 21.7%
Second compound 3.16 µM, first compound 0.316 µM
  viability, T/C: 27.5%
Second compound 3.16 µM, first compound 1 µM
  viability, T/C: 34.4%
Second compound 3.16 µM, first compound 3.16 µM
  viability, T/C: 38.6%
Second compound 3.16 µM, first compound 10 µM
  viability, T/C: 45.5%
Second compound 10 µM, first compound 0.0316 µM
  viability, T/C: 17.7%
Second compound 10 µM, first compound 0.1 µM
  viability, T/C: 22.3%
Second compound 10 µM, first compound 0.316 µM
  viability, T/C: 29.7%
Second compound 10 µM, first compound 1 µM
  viability, T/C: 37.2%
Second compound 10 µM, first compound 3.16 µM
  viability, T/C: 38.7%
Second compound 10 µM, first compound 10 µM
  viability, T/C: 42.8%

## C=CC(=O)N1CCN(c2nc(=O)n(-c3c(C)ccnc3C(C)C)c3nc(-c4c(O)cccc4F)c(F)cc23)C(C)C1 (stereo not given)
Compound 0.0316 µM
  viability, T/C: 108% and 87.8%
Compound 0.1 µM
  viability, T/C: 83.9% and 127%
Compound 0.316 µM
  viability, T/C: 100% and 101%
Compound 1 µM
  viability, T/C: 119% and 105%
Compound 3.16 µM
  viability, T/C: 110% and 117%
Compound 10 µM
  viability, T/C: 84.3% and 90.5%
Curve of compound
  IC50: > 10000 nM

From PubChem BioAssay AID2060616 (Molecular Pharmacology Branch, DTP, NCI, 2025)
